The record followed here is PubChem BioAssay (NCI).

Where “and” joins values, the source holds several entries; their conditions need not be identical. Equal values may be shown once.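 Growth conditions: 96-well plates. Treatment: test compound, 48 hours, 5 concentrations. Analysis: linear interpolation between bracketing concentrations; unreached endpoints set to highest concentration. Abbreviation: GI50, concentration required for 50% inhibition of growth. TGI denotes the concentration required for complete inhibition of growth.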

What all share (assay): NCI-60 cell line screen, 48 h
For assay [1], the system named is UACC-62 melanoma.
Assay [2] concerns M14 melanoma.
Assay [3] relates to KM12 colon.
In assay [4] the test system is EKVX NSCLC.
The subject of assay [5] is SK-OV-3 ovarian.
In assay [6] the test system is OVCAR-4 ovarian.
Assay [7] relates to HCC-2998 colon.
Assay [8] concerns NCI-H23 lung.
For assay [9], the system named is LOX IMVI melanoma.
Assay [10] concerns RPMI-8226 leukemia.

In the case of `CS(=O)(=O)Nc1ccc(-c2cc(-c3ccccc3)cc(C(N)=O)c2N)cc1`, the GI50 in [1] was over 25 µM; in assay [2], over 25 µM; in [3], 20.5 µM; in assay [4], over 25 µM; in assay [5], over 25 µM; in assay [6] it was over 21.6 µM. Besides, the GI50 was over 25 µM in [7], over 25 µM in assay [8], over 25 µM in assay [9] and 18.4 µM in [10]. In addition, the TGI in assay [1], in [2], in assay [3], in assay [4], in [5] and in assay [6] was over 25 µM in each case. Also, the TGI in [7], in [8], in [9] and in assay [10] was over 25 µM each time.

For `O=C1c2ccccc2S(=O)(=O)N1CSC(=S)N1CCCCC1`, the TGI in [1] was over 57.3 µM; in [2] it was over 100 µM; in assay [3], over 100 µM; in [4] it was over 100 µM; in assay [5] it was over 100 µM; in assay [6], over 100 µM. Besides, the TGI is over 100 µM in [7], over 100 µM in assay [8], over 100 µM in [9] and 0.607 µM in assay [10]. Besides, the GI50 in [2] was over 100 µM; in [3], over 55.7 µM; in assay [4] it was over 100 µM; in assay [5], over 100 µM; in assay [6], over 100 µM; in [7], over 100 µM. Besides, the values for the GI50 in assay [8], in assay [9] and in assay [10] were over 100 µM, over 100 µM and 0.205 µM, respectively.

In the case of `NS(=O)(=O)c1ccc(NC2=CC(=O)C(=O)c3ccccc32)cc1`, the TGI in [1], in assay [2], in assay [3], in assay [4], in assay [5] and in assay [6] was over 100 µM each time. Besides, the TGI in assay [7], in [8], in [9] and in assay [10] was over 100 µM each time.

Consider `NC1CCC(Nc2nc(NCc3ccc(-c4cccs4)nc3)c3ncn(C4CCCC4)c3n2)CC1` (centres undefined), for which the GI50 in [1] is 0.087 µM; in assay [2], 0.0258 µM; in assay [3], 0.0285 µM; in assay [4], 0.0426 µM; in assay [5] it was 0.126 µM; in assay [6] it was 0.0326 µM. Further, the GI50 in assay [7] was 0.0307 µM; in [8] it was 0.0383 µM; in assay [9] it was 0.296 µM; in assay [10] it was 0.0227 µM. For the same compound, the TGI in [1] stood at 0.365 µM; in assay [2] it was 0.337 µM; in assay [3] it was 0.743 µM; in assay [4] it was 0.762 µM; in assay [5] it was 4.28 µM; in assay [6], 1.06 µM. In addition, the TGI in assay [7] is 0.49 µM; in [8], 0.319 µM; in assay [9], 3.48 µM; in assay [10], 0.137 µM.

Turning to `COC1CCN(C(=O)c2cc(Cc3n[nH]c(=O)c4ccccc34)ccc2F)CC1`, the GI50 in [1] is 40 µM; in assay [2] it was over 90.9 µM; in assay [3] it was over 100 µM; in assay [4] it was over 100 µM; in assay [5], over 100 µM; in assay [6], 36.7 µM. The GI50 in [7] was over 100 µM; in assay [8], 51.7 µM; in assay [9], 58.5 µM; in [10], 60.9 µM. In addition, the TGI in [1], in [2], in assay [3], in assay [4], in [5] and in [6] was over 100 µM each time. Also, the TGI in assay [7], in assay [8], in assay [9] and in assay [10] was over 100 µM each time.

`O=C1C(=O)c2c(nc3ccc(Br)cn23)-c2ccccc21`: the GI50 is 0.365 µM in [1]; 0.489 µM in assay [2]; 1.55 µM in assay [3]; 1.54 µM in assay [4]; 1.71 µM in assay [5]; 0.191 µM in [6]. Also, the GI50 in assay [7] is 1.93 µM; in assay [8] it was 0.372 µM; in [9], 0.242 µM; in assay [10], 0.388 µM. Moreover, the TGI in assay [1] turned out to be 1.27 µM; in assay [2] it was 1.02 µM; in [3], 3.19 µM; in assay [4], 3.31 µM; in assay [5], 3.09 µM; in assay [6], 0.398 µM. In addition, the TGI in assay [7] is 3.51 µM; in assay [8], 2.51 µM; in [9] it was 0.689 µM; in [10], 2.67 µM.

In the case of `CO[C@@H]1C=C[C@@]23c4cc5c(cc4C(=O)O[C@H]2CN(C)[C@H]3C1)OCO5`, the TGI in assay [1], in [2], in [3], in assay [4], in assay [5] and in assay [6] was over 100 µM throughout. The TGI in assay [7], in assay [8], in assay [9] and in assay [10] was over 100 µM throughout.

Turning to `CN(C)CCNC(=O)C(C)(C)Oc1ccc(C(=O)c2ccc(Cl)cc2)cc1Cl`, the GI50 in assay [1] was 2.81 µM; in [2], 1.82 µM; in [8], 4.77 µM; in [9], 0.0392 µM; in assay [10], 3.32 µM. In addition, the TGI in assay [1] is 4.29 µM; in assay [2] it was 3.67 µM and 5.99 µM; in assay [3] it was 23 µM; in assay [4], 23.9 µM; in assay [5] it was 29.6 µM; in assay [6], 28 µM. In addition, the TGI in [7] is 16.7 µM; in assay [8], 21.9 µM; in [9] it was 20.1 µM; in assay [10], over 48.7 µM.

For `CC[P+](C)(C)c1ccccc1`, the TGI in [1], in [2], in assay [3], in [4], in assay [5] and in [6] was over 100 µM each time. The TGI in assay [7], in [8], in assay [9] and in [10] was over 100 µM each time.
